Values joined by “and” are separate entries in the source; they are usually repeats but may differ in a detail not shown here. Equal values may be shown once.
Assay: RSV-A Assay: The description is Japanese.

`O=C1Nc2ccccc2C(c2ccc(F)cc2)=NC1Nc1nnc(-c2ccc(F)cc2)o1` (stereo unspecified) and `N#Cc1cccc(C2=NC(Nc3nnc(-c4ccc(F)cc4)o3)C(=O)Nc3ccccc32)c1` (stereo unspecified) cannot be ordered by EC50: > 800 nM for the first, > 800 nM for the second.

`COCCCc1cc(C(F)(F)F)cnc1C(=O)NN` and `CCOC(=O)c1ncc(C(F)(F)F)cc1N` cannot be ordered by EC50: > 800 nM for the first, > 800 nM for the second.

`N#Cc1ccc(N2CCOCC2)c(-c2nnc(N[C@H]3N=C(c4ccccc4)c4ccccc4NC3=O)o2)n1` and `N#Cc1cnc(-c2nnc(N[C@H]3N=C(c4ccccc4)c4ccccc4NC3=O)o2)c(N2CCOCC2)c1` cannot be ordered by EC50: < 400 nM for the first, < 400 nM for the second.

`COC(C)(C)CNc1cc(C(F)(F)F)cnc1-c1nnc(N[C@H]2N=C(c3ccccc3)c3ccccc3NC2=O)o1` and `COCC(C)(C)Nc1cc(C(F)(F)F)cnc1-c1nnc(N[C@H]2N=C(c3ccccc3)c3ccccc3NC2=O)o1` cannot be ordered by EC50: > 800 nM for the first, > 800 nM for the second.

`COc1ccn2ncc(-c3nnc(N[C@H]4N=C(c5ccccc5)c5ccccc5NC4=O)o3)c2c1` and `COCCc1cccn2ncc(-c3nnc(N[C@H]4N=C(c5ccccc5)c5ccccc5NC4=O)o3)c12` cannot be ordered by EC50: > 800 nM for the first, > 800 nM for the second.

`O=C1Nc2ccccc2C(c2ccccc2)=N[C@@H]1Nc1nnc(-c2nc(-c3cccnc3)sc2N2CCOCC2)o1` and `O=C1Nc2ccccc2C(c2ccccc2)=N[C@@H]1Nc1nnc(-c2nc(-c3ccccc3)sc2N2CCOCC2)o1` cannot be ordered by EC50: < 400 nM for the first, < 400 nM for the second.

Compared with `O=C1Nc2c(F)cccc2C(c2ccccc2)=N[C@@H]1Nc1nnc(-c2ccccc2N2CCOCC2)o1`, `O=C1Nc2c(F)cccc2C(c2ccccc2)=N[C@H]1Nc1nnc(-c2ccccc2N2CCOCC2)o1` is higher in EC50: < 400 nM for the first, > 800 nM for the second. The first is the more potent here.

`Cc1cc(-c2nnc(N[C@H]3N=C(c4ccccc4)c4ccccc4NC3=O)o2)c(N2CCOCC2)s1` and `O=C1Nc2ccccc2C(c2ccccc2)=N[C@@H]1Nc1nnc(-c2cc(C(F)(F)F)sc2N2CCOCC2)o1` cannot be ordered by EC50: < 400 nM for the first, < 400 nM for the second.

`O=C1Nc2ccccc2C(c2ccccc2)=NC1Nc1cnc(-c2ccc(F)cc2)cn1` (stereo unspecified) and `O=C1Nc2ccccc2C(c2ccccc2)=NC1Nc1ccc(-c2ccc(F)cc2)nn1` (stereo unspecified) cannot be ordered by EC50: > 800 nM for the first, > 800 nM for the second.

`O=C1Nc2ccccc2C(c2ccccc2)=N[C@@H]1Nc1nnc(-c2ccnn2-c2ccccc2)o1` and `O=C1Nc2ccccc2C(c2ccccc2)=NC1Nc1nnc(-c2ccccc2C2=CCOCC2)o1` (stereo unspecified) cannot be ordered by EC50: > 800 nM for the first, > 800 nM for the second.

`O=C1Nc2ccccc2C(c2ccccc2)=NC1Nc1ncc(-c2ccccc2)cn1` (stereo unspecified) and `O=C1Nc2ccccc2C(c2ccccc2)=NC1Nc1ncc(-c2ccc(F)cc2)o1` (stereo unspecified) cannot be ordered by EC50: > 800 nM for the first, > 800 nM for the second.

Compared with `O=C1Nc2ccccc2C(c2ccccc2)=N[C@@H]1Nc1nnc(-c2ncc(C(F)(F)F)cc2N[C@H]2CC[C@H]2O)o1`, `O=C1Nc2ccccc2C(c2ccccc2)=N[C@@H]1Nc1nnc(-c2ncc(C(F)(F)F)cc2NC[C@H]2CCCO2)o1` is lower in EC50: > 800 nM for the first, < 400 nM for the second.

`N#Cc1cnc(-c2nnc(N[C@H]3N=C(c4ccccc4)c4cccc(F)c4NC3=O)o2)c(N2CCOCC2)c1` and `O=C1Nc2c(F)cccc2C(c2ccccc2)=N[C@H]1Nc1nnc(-c2ncc(C(F)(F)F)cc2N2CCOCC2)o1` cannot be ordered by EC50: < 400 nM for the first, < 400 nM for the second.

`C#Cc1nc(C(=O)O)c(N2CCOCC2)s1` and `COC(=O)c1nc(Br)sc1N1CCOCC1` cannot be ordered by EC50: < 400 nM for the first, < 400 nM for the second.

Compared with `CS(=O)(=O)c1cnc(-c2nnc(N[C@H]3N=C(c4ccccc4)c4ccccc4NC3=O)o2)c(N2CCOCC2)c1`, `O=C1Nc2ccccc2C(c2ccccc2)=N[C@@H]1Nc1nnc(-c2ncsc2N2CCOCC2)o1` is lower in EC50: > 800 nM for the first, < 400 nM for the second.

`O=C1Nc2ccccc2C(c2ccccc2)=N[C@@H]1Nc1nnc(-c2nc(C(F)(F)F)sc2N2CCOCC2)o1` and `CC(F)(F)c1nc(-c2nnc(N[C@H]3N=C(c4ccccc4)c4ccccc4NC3=O)o2)c(N2CCOCC2)s1` cannot be ordered by EC50: < 400 nM for the first, < 400 nM for the second.

Compared with `COc1ccc(-c2ccc(NC3N=C(c4ccccc4)c4ccccc4NC3=O)nn2)cc1` (stereo unspecified), `N#Cc1ccc(-c2ccc(NC3N=C(c4ccccc4)c4ccccc4NC3=O)nn2)cc1` (stereo unspecified) is lower in EC50: > 800 nM for the first, < 400 nM for the second. The second is the more potent here.

`Cc1nc(-c2nnc(N[C@H]3N=C(c4ccccc4)c4ccccc4NC3=O)o2)c(C2=CCOCC2)s1` and `O=C1Nc2ccccc2C(c2ccccc2)=N[C@@H]1Nc1nnc(-c2ncsc2C2=CCOCC2)o1` cannot be ordered by EC50: < 400 nM for the first, < 400 nM for the second.

`CCOC(=O)c1nc(-c2ccc(C(F)(F)F)nc2)sc1N1CCOCC1` and `CCOC(=O)c1nc(-c2ccc(F)cn2)sc1N1CCOCC1` cannot be ordered by EC50: < 400 nM for the first, < 400 nM for the second.

`Cc1nc(-c2nnc(N[C@H]3N=C(c4ccccc4)c4ccccc4NC3=O)o2)c(Cl)s1` and `Cc1nc(-c2nnc(N[C@H]3N=C(c4ccccc4)c4ccccc4NC3=O)o2)cs1` cannot be ordered by EC50: > 800 nM for the first, > 800 nM for the second.

`CCOC(=O)c1nc(-c2cnn(C)c2)sc1N1CCOCC1` and `CCOC(=O)c1cn(CC)nc1N1CCOCC1` cannot be ordered by EC50: < 400 nM for the first, < 400 nM for the second.

`COCCn1ccc2cccc(C(=O)OC)c21` and `CCOC(=O)c1ccnc2ccc(COC)cc12` cannot be ordered by EC50: > 800 nM for the first, > 800 nM for the second.

`O=C1Nc2ccccc2C(c2ccccc2)=N[C@@H]1Nc1nnc(-c2nc(C3CCCCC3)sc2N2CCOCC2)o1` and `O=C1Nc2ccccc2C(c2ccccc2)=N[C@@H]1Nc1nnc(-c2nc(C3CCC3)sc2N2CCOCC2)o1` cannot be ordered by EC50: < 400 nM for the first, < 400 nM for the second.

Compared with `CCOC(=O)c1nc(C)sc1NCCOC`, `CCOC(=O)c1ccnc2ccc(OC)cc12` is higher in EC50: < 400 nM for the first, > 800 nM for the second.

`O=C1Nc2ccccc2C(c2ccccc2)=NC1Nc1nnc(-c2ccc(F)cc2)[nH]1` (stereo unspecified) and `O=C1Nc2ccccc2C(c2ccccc2)=NC1Nc1nnc(-c2ccncc2)[nH]1` (stereo unspecified) cannot be ordered by EC50: > 800 nM for the first, > 800 nM for the second.

`O=C1Nc2ccccc2C(c2ccccc2)=NC1Nc1ccc(-c2ccccc2N2CCOCC2)nn1` (stereo unspecified) and `O=C1Nc2ccccc2C(c2ccccc2)=NC1Nc1nnc(-c2ccccc2N2CCOCC2)[nH]1` (stereo unspecified) cannot be ordered by EC50: > 800 nM for the first, > 800 nM for the second.

`COCCn1cc(-c2nnc(N[C@H]3N=C(c4ccccc4)c4ccccc4NC3=O)o2)c(N2CCOCC2)n1` and `CC(C)n1cc(-c2nnc(N[C@H]3N=C(c4ccccc4)c4ccccc4NC3=O)o2)c(N2CCOCC2)n1` cannot be ordered by EC50: < 400 nM for the first, < 400 nM for the second.

`COCC1(Nc2cc(C(F)(F)F)cnc2-c2nnc(N[C@H]3N=C(c4ccccc4)c4ccccc4NC3=O)o2)CC1` and `CC1(Nc2cc(C(F)(F)F)cnc2-c2nnc(N[C@H]3N=C(c4ccccc4)c4ccccc4NC3=O)o2)CCOC1` (stereo partly specified) cannot be ordered by EC50: > 800 nM for the first, > 800 nM for the second.

First: O=C1Nc2ccccc2C(c2ccccc2)=NC1Nc1nnc(C2CC2)[nH]1 (stereo unspecified)
Second: CSC(=N)NC1N=C(c2ccccc2)c2ccccc2NC1=O (stereo unspecified)
The EC50 of the first is higher: > 800 nM for the first, < 400 nM for the second. The second is the more potent here.

`COC(=O)c1occc1N1CCOCC1` and `COC(=O)c1cc(C2CC2)sc1N1CCOCC1` cannot be ordered by EC50: < 400 nM for the first, < 400 nM for the second.

First: C[C@H]1CN(c2cc(C#N)cnc2-c2nnc(N[C@H]3N=C(c4ccccc4)c4ccccc4NC3=O)o2)CCO1
Second: O=C1Nc2ccccc2C(c2ccccc2)=N[C@@H]1Nc1nnc(-c2ncc(C(F)(F)F)cc2N2CCC(O)CC2)o1
The EC50 of the first is lower: < 400 nM for the first, > 800 nM for the second.

`O=C1Nc2ccccc2C(c2ccccc2)=NC1Nc1ccc(-c2ccncc2)nn1` (stereo unspecified) and `O=C1Nc2ccccc2C(c2ccccc2)=NC1Nc1ncc(-c2ccc(Br)cc2)o1` (stereo unspecified) cannot be ordered by EC50: > 800 nM for the first, > 800 nM for the second.

Going from `O=C1Nc2ccccc2C(c2ccccc2)=NC1Nc1nnc(-c2ccccc2C2CCOCC2)o1` (stereo unspecified) to `Cc1nc(-c2nnc(N[C@H]3N=C(c4ccccc4)c4ccccc4NC3=O)o2)c(C2CCOCC2)s1`, the EC50 falls from > 800 nM to < 400 nM.

Going from `O=C1Nc2c(Cl)cccc2C(c2ccccc2)=NC1Nc1nnc(-c2ccccc2N2CCOCC2)o1` (stereo unspecified) to `Cc1nc(-c2nnc(N[C@H]3N=C(c4ccccc4)c4ccccc4NC3=O)o2)c(N2CCOCC2)o1`, the EC50 falls from > 800 nM to < 400 nM.

`COc1ccccc1-c1nc(-c2nnc(N[C@H]3N=C(c4ccccc4)c4ccccc4NC3=O)o2)c(N2CCOCC2)s1` and `O=C1Nc2ccccc2C(c2ccccc2)=NC1Nc1nnc(-c2nc(Br)sc2N2CCOCC2)o1` (stereo unspecified) cannot be ordered by EC50: < 400 nM for the first, < 400 nM for the second.

`CCc1nc(-c2nnc(N[C@H]3N=C(c4ccccc4)c4ccccc4NC3=O)o2)c(N2CCOCC2)s1` and `O=C1Nc2ccccc2C(c2ccccc2)=N[C@@H]1Nc1nnc(-c2nsnc2N2CCOCC2)o1` cannot be ordered by EC50: < 400 nM for the first, < 400 nM for the second.

`COCCCc1sc(C(F)(F)F)nc1-c1nnc(N[C@H]2N=C(c3ccccc3)c3ccccc3NC2=O)o1` and `COCCCc1cc(C(F)(F)F)cnc1-c1nnc(N[C@H]2N=C(c3ccccc3)c3ccccc3NC2=O)o1` cannot be ordered by EC50: > 800 nM for the first, > 800 nM for the second.

`O=C1Nc2ccccc2C(c2ccccc2)=N[C@@H]1Nc1nnc(-c2ncc(C(F)(F)F)cc2NCc2ccco2)o1` and `COC[C@@H]1C[C@H]1c1sc(C(F)(F)F)nc1-c1nnc(N[C@H]2N=C(c3ccccc3)c3ccccc3NC2=O)o1` cannot be ordered by EC50: > 800 nM for the first, > 800 nM for the second.

`CCOC(=O)c1cn(-c2cccnc2)nc1N1CCOCC1` and `COC(=O)c1nc(-c2ccccn2)sc1Cl` cannot be ordered by EC50: < 400 nM for the first, < 400 nM for the second.

With `O=C1Nc2ccccc2C(c2ccccc2)=N[C@@H]1Nc1nnc(-c2ncc(C(F)(F)F)cc2NC[C@@H]2CCCO2)o1` the EC50 was “in the range around 600 nM”.
For `O=C1Nc2ccccc2C(c2cccc(F)c2)=NC1Nc1nnc(-c2ccc(F)cc2)o1` (stereo unspecified), the EC50 was “in the range around 600 nM”.
With `O=C1Nc2c(F)cccc2C(c2ccccc2)=NC1Nc1nnc(-c2ccc(N3CCOCC3)cc2)o1` (stereo unspecified) the EC50 was “in the range around 600 nM”.
With `N#Cc1cnc(-c2nnc(N[C@H]3N=C(c4ccccc4)c4ccccc4NC3=O)o2)c(N2C3CCC2COC3)c1` the EC50 was “in the range around 600 nM”.
With `N#Cc1ccc(-c2nnc(NC3N=C(c4ccccc4)c4ccccc4NC3=O)[nH]2)cc1` (stereo unspecified) the EC50 was “in the range around 600 nM”.
With `N#Cc1ccc(-c2cnc(NC3N=C(c4ccccc4)c4ccccc4NC3=O)o2)cc1` (stereo unspecified) the EC50 was “in the range around 600 nM”.
For `C[C@@H]1CN(c2cc(C#N)cnc2-c2nnc(N[C@H]3N=C(c4ccccc4)c4ccccc4NC3=O)o2)CCO1`, the EC50 was “in the range around 600 nM”.
In the case of `O=C1Nc2ccccc2C(c2ccccc2)=N[C@@H]1Nc1nnc(-c2cnn(-c3ccccc3)c2)o1`, the EC50 is reported as “in the range around 600 nM”.
For `O=C1Nc2ccccc2C(c2ccccc2)=N[C@@H]1Nc1nnc(-c2csc(N3CCOCC3)n2)o1`, the EC50 was “in the range around 600 nM”.
In the case of `O=C1Nc2c(F)cccc2C(c2ccccc2)=N[C@H]1Nc1nnc(-c2cccnc2N2CCOCC2)o1`, the EC50 is reported as > 800 nM and < 400 nM.
In the case of `CN1CCN(c2cc(C(F)(F)F)cnc2-c2nnc(N[C@H]3N=C(c4ccccc4)c4ccccc4NC3=O)o2)CC1`, the EC50 is reported as “in the range around 600 nM”.
In the case of `O=C1Nc2ccccc2C(c2ccccc2)=N[C@@H]1Nc1nnc(-c2ncc(C(F)(F)F)cc2N[C@@H]2CCC[C@@H]2O)o1`, the EC50 is reported as “in the range around 600 nM”.
In the case of `O=C1Nc2ccccc2C(c2ccccc2)=N[C@@H]1Nc1nnc(-c2ncc(C(F)(F)F)cc2N[C@H]2CCC[C@H]2O)o1`, the EC50 is reported as “in the range around 600 nM”.
